These are literature values, as cited in US20240216546A1, “MODEL OPTIMIZED DRUG AND DRUG COMBINATIONS FOR TREATING CANCERS” (My Personal Therapeutics, priority 2021, published 2024).

Structures are written as SMILES.

The subject of the data set is non-small cell lung cancer. To be noted: erlotinib in combination with first line chemotherapy (carboplatin and paclitaxel).
Setting [1] is: patients with the KRAS mutation.

Consider `C#Cc1cccc(Nc2ncnc3cc(OCCOC)c(OCCOC)cc23)c1` [erlotinib], for which the time-to-progression (group with wild-type KRAS) is reported as 12 months. Under setting [1], the overall survival entry is recorded as “four” and the time to progression result was “three”.
